≈ marks a conversion by molar mass, not a printed value. Like-named read-outs stand apart in the source and are kept apart here.
Legend:
[1] = test system: S. aureus; assay: MIC (microbroth dilution); format: cell-based, Staphylococcus aureus
How it was run: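 Broth microdilution MICs, defined as lowest compound level without visible growth (OD600 read), on bacteria grown overnight to stationary phase then diluted. Twofold compound dilutions; some wells also received PMBN, final 30 μg/mL, to permeabilize the outer membrane.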

[2] = test system: Pseudomonas aeruginosa; assay: MIC (microbroth dilution); format: cell-based
How it was run: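 Microbroth dilution in tryptic soy broth; Streptococcus spp. in cation-adjusted Mueller Hinton broth with 2.5% lysed horse blood, inocula from overnight stationary-phase cultures. MIC is lowest concentration without visible growth, OD600 read. Parallel MICs run with 30 μg/mL polymyxin B nonapeptide (final) as outer-membrane permeabilizer.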

[3] = test system: A. baumannii; assay: Mutation frequency and agar MIC; format: cell-based; conditions: A118
Description: (§1) Mutation frequencies were performed on solid media at supra-inhibitory concentrations. First, the agar MIC was performed to account for any issues in solubility of compounds in solid media. Agar plates were prepared with 2-fold dilutions of compound.
(§2) For the mutation frequency assay, bacteria from an overnight culture were grown to mid exponential phase in liquid broth, then 100 μL was spread onto an agar plate containing compound at concentrations above the agar MIC. A Miles-Misra was also conducted on an antibiotic-free agar plate to determine the CFU/mL of the starting population. […] The mutation frequency was calculated by dividing the number of colonies on supra inhibitory con-centration plates by the starting population.

[4] = test system: E. coli; assay: Mutation frequency and agar MIC; format: cell-based
Description: as §1, §2

[5] = test system: S. aureus; assay: Mutation frequency and agar MIC; format: cell-based
Description: as §1, §2

[6] = Pharmacokinetics; conditions: male, ICR (CD-1), mouse
Description: Pharmacokinetic studies were performed in male ICR (CD-1) mice obtained from Charles River, UK. […] Blood samples were collected from the caudal vein into anticoagulant-treated capillaries at predetermined time points up to 8 h, with terminal cardiac puncture at 8 h. Plasma samples were stored at −80 °C until analysis. […] A compound-specific LC-MS/MS method was developed for each test article using matrix-matched calibrators following protein precipitation of samples.

## C[C@H]1COc2c(N3CCN(C)CC3)c(F)cc3c(=O)c(C(=O)O)cn1c23 [Levofloxacin, (S)-9-Fluoro-3-methyl-10-(4-methylpiperazin-1-yl)-7-oxo-2,3-dihydro-7H-[1,4]oxazino[2,3,4-ij]quinoline-6-carboxylic acid, reference compound]
[1]; ATCC 9144
  MIC: 0.25 µg/mL (≈ 0.692 µM)
[1]; SA-1199
  MIC: 0.25 µg/mL (≈ 0.692 µM)
[1]; SA-1199B (NorA-overexpressing)
  MIC: 2 µg/mL (≈ 5.53 µM)
[1]; Staphylococcus aureus, 1199, + 4% albumin, read-out: MIC
  MIC: 0.25 µg/mL
[1]; Staphylococcus aureus, 1199b, + 4% albumin, read-out: MIC
  MIC: 2 µg/mL
[1]; Staphylococcus aureus, ATCC9144, ATCC 9144, + 4% albumin, read-out: MIC
  MIC: 0.25 µg/mL
[1]; Staphylococcus aureus, ATCC9144, ATCC 9144, read-out: MIC
  MIC: 0.125 µg/mL (≈ 0.346 µM)
[1]; Staphylococcus aureus, NCTC13277, NCTC 13277, + 4% albumin, read-out: MIC
  MIC: 16 µg/mL
[1]; Staphylococcus aureus, NCTC13277, NCTC 13277, read-out: MIC
  MIC: 16 µg/mL (≈ 44.3 µM)
[1]; Staphylococcus aureus, NCTC13616, NCTC 13616, + 4% albumin, read-out: MIC
  MIC: 16 µg/mL
[1]; Staphylococcus aureus, NCTC13616, NCTC 13616, read-out: MIC
  MIC: 16 µg/mL (≈ 44.3 µM)
[1]; Staphylococcus aureus, SA-1199, read-out: MIC
  MIC: 0.125 µg/mL (≈ 0.346 µM)
[1]; Staphylococcus aureus, SA-1199B (NorA-overexpressing)
  MIC: 1 µg/mL (≈ 2.77 µM)
[2]; CAS4, + PMBN
  MIC: ≤ 0.125 µg/mL
[2]; CFL 004 CRCN, + PMBN
  MIC: 16 µg/mL
[2]; GH12, + PMBN
  MIC: 4 µg/mL
[2]; NCTC 10662, + PMBN
  MIC: ≤ 0.125 µg/mL
[2]; NCTC 12903, + PMBN
  MIC: ≤ 0.125 µg/mL
[2]; NCTC 13359, + PMBN
  MIC: 0.25 µg/mL
[2]; PAO1, + PMBN
  MIC: 0.125 µg/mL
[2]; PAO1 ΔmexB, + PMBN
  MIC: ≤ 0.03 µg/mL
[2]; Pseudomonas aeruginosa, CAS4
  MIC: 2 µg/mL (≈ 5.53 µM)
[2]; Pseudomonas aeruginosa, GH12
  MIC: 64 µg/mL (≈ 177 µM)
[2]; Pseudomonas aeruginosa, GH100
  MIC: 0.25 µg/mL (≈ 0.692 µM)
[2]; Pseudomonas aeruginosa, NCTC10662, NCTC 10662
  MIC: 2 µg/mL (≈ 5.53 µM)
[2]; Pseudomonas aeruginosa, NCTC12903, NCTC 12903
  MIC: 4 µg/mL (≈ 11.1 µM)
[2]; Pseudomonas aeruginosa, NCTC13359, NCTC 13359
  MIC: 4 µg/mL (≈ 11.1 µM)
[2]; Pseudomonas aeruginosa, PAO1
  MIC: 0.5 µg/mL (≈ 1.38 µM)
[2]; Pseudomonas aeruginosa, PAO1, PAO1
  MIC: 2 µg/mL (≈ 5.53 µM)
[2]; Pseudomonas aeruginosa, CFL 004 CRCN, read-out: MIC
  MIC: 128 µg/mL (≈ 354 µM)
[2]; Pseudomonas aeruginosa, in the presence of PMBN, n = 7 strains
  MIC50: 0.125 µg/mL
[3]
  Agar MIC: 0.06 µg/mL
[4]; NCTC 12241
  Agar MIC: 0.03 µg/mL
[4]; NCTC 12923
  Agar MIC: 0.0078 µg/mL
[5]; ATCC 9144
  Agar MIC: 0.12 µg/mL
[5]; NCTC 13616
  Agar MIC: 4 µg/mL
[6]; in vivo, po, 20 mg/kg
  half-life: 5.7 h
[6]; plasma, iv, 5 mg/kg
  AUC(0-inf): 9170 ng·h/mL

Source: PMC13266999, “Designing Antibiotics with Inherent Resistance to Efflux as a Strategy to Revive Discovery against Multidrug-Resistant Pathogens” (Journal of Medicinal Chemistry, 2026)
